2 substances from patent US8017576B2, “Methods and compositions to treat mucositis” (The University of Chicago, priority 2005, dated 2011) can be followed below.

The subject of one data set is hamster cheek pouch. As to the kind of experiment: Study 6: radiation-induced cheek pouch mucositis, topical dosing. The format is in vivo. Particulars: each of the hamster cheek pouch studies and the mouse model. The method, then: In a separate test of efficacy (Study 6), AMP77-97 peptide was administered topically into the hamster cheek pouch (n=32). Doses of 0.5, 5 or 50 mg/kg AMP77-97 peptide in PBS were placed in the pouch three times daily from days −5 to −1 before radiation and 1 to 15 after radiation.
Acute Radiation-induced Mucositis. Oral mucositis was induced in hamsters by administering a single dose of radiation of 40 Gy. On day 0, under anesthesia (intraperitoneal injection of ketamine [160 mg/kg] and xylazine [8 mg/kg]), the left buccal pouch was everted, fixed, and radiated while the rest of the animal was shielded with lead cover. Radiation was generated using a 160-kV potential (18.75-ma) source at a focal distance of about 21 cm, hardened with a 3-mm Al filtration system. Ionizing radiation was targeted at the left buccal pouch mucosa at a rate of 1.32 Gy/minute.
Mucositis Evaluation: The progression of mucositis was monitored daily for both models. Every other day starting on day 6 postirradiation, animals were anesthetized using inhalation anesthesia, and the left buccal pouch was everted and photographed. At the conclusion of the study's clinical phase, film was developed, and resulting photos were randomly numbered and then scored in blinded fashion by two observers. […] Severity of oral mucositis (OM) was calculated using the scores per treatment group on each observation day (mean±SE). […]

Data set [1] relates to BDF-1, C3H/OuJ, C3H/HeN, C57Bl/6 and Balb c mice. As to the kind of experiment: Study 2: thickening of oral epithelium in five mouse strains. The note with it: Study 2, five mouse strains. The class given is in vivo. The text has this:
In Study 2, the effect of AMP77-97 peptide on thickening in the oral epithelium was compared in five different strains of mice. […] Hyperkeratosis was again observed in the esophagus of BDF-1 mice, and was also seen in C3H/HeN mice.

The test system of data set [2] is BDF-1 mice. Particulars: mouse, in vivo. The method, then: AMP77-97 peptide (25 mg/kg, s.c.) was administered 5 days before and 10 days after radiation of the tongue in the BDF-1 mouse model of oral mucositis. Photomicrographs were prepared 10 days after radiation. Tissue from control irradiated mice treated with vehicle (saline) show substantial epithelial and connective tissue cell loss in both compartments compared to normal mouse tongue.
In Study 3, mucositis was induced in BDF-1 mice (n=40) by administering a single dose of radiation of 30 Gy to the snout. To evaluate the effect of AMP77-97 peptide in this setting of radiation-induced injury of the epithelial and connective tissue compartments of the tongue, mouse AMP77-97 peptide (25 mg/kg) was administered once daily subcutaneously before and after radiation (days −5 to 10; radiation on day 0). […] The evaluation was performed on day 10 when mucositis injury is at its peak. This effect on connective tissue supported that AMP77-97 peptide has beneficial effects on multiple cell and tissue types damaged by radiation.

Data set [3] concerns BDF-1 mice. As to the kind of experiment: Study 1: epithelial thickening of oral mucosal surfaces in mice. The format is in vivo. The note with it: Study 1, mice. The method, then:
(§1) The capacity of the AMP77-97 peptide to induce epithelial thickening of oral mucosal surfaces in mice and hamsters was studied to determine if these animals could be used to evaluate the potential of AMP77-97 peptide in the treatment of oral mucositis. In Study 1, female BDF-1 mice (n=8) and Syrian golden hamsters (n=8) were given daily subcutaneous injections of saline, mouse AMP77-97 peptide at 5 mg/kg, or 25 mg/kg for five days. […] There also appeared to be an increase in both hyperplasia and hyperkeratosis with increasing dose (more prevalent/pronounced in the animals receiving 25 mg/kg than those receiving 5 mg/kg) and duration of dosing (there were some effects seen at 2 days, but were more readily seen after 5 consecutive days). The effect was more easily observed on the dorsal than the ventral surface of the tongue.

For a further data set, the system named is Syrian golden hamsters. As to the kind of experiment: Study 1: epithelial thickening of oral mucosal surfaces in hamsters. The format is in vivo, hamster. The note with it: Study 1, hamsters. The method, then: as §1
Data set [4] concerns human colonic Caco2 (C2) cell monolayers. As to the kind of experiment: Tight junction recovery after low-calcium disruption, ZO-1 confocal microscopy. The class given is cell-based. The note with it: low-calcium medium (3 μM) 1 hour, assessed 2 hours after addition; AMP peptide 8 μg/ml, KGF-1 100 ng/ml, EGF 100 ng/ml. The method, then: The AMP77-97 peptide prevented decreases in TJ proteins and epithelial integrity seen after treatment of human colonic Caco2 (C2) cell monolayers with the oxidant monochloramine, which disrupts intercellular junctions (FIG. 2; C,D). These cells were exposed to low-calcium medium (3 μM) for 1 hr to disrupt TJs, and then allowed to recover in medium containing AMP77-97 peptide, epidermal growth factor (EGF) or keratinocyte growth factor (KGF-1) which are known epithelial cell mitogens that might facilitate recovery of disrupted TJs. […] At the molecular level, AMP77-97 peptide facilitates the formation of TJs by enhancing translocation of several proteins (protein kinase C-zeta, Par6, Cdc42, ECT2 and Par3) from the cytosol into TJ domains.
Localization of the tight junction protein ZO-1 was monitored by indirect immunofluorescence laser scanning confocal microscopy in confluent monolayers of C2 cells. […] To disrupt tight junctions, cells were switched to low-calcium medium (3 μM) for 1 hour. Then a growth factor at a known mitogenic concentration was added to the medium, and 2 hours later its effect on tight junction formation was assessed by confocal microscopy. Vehicle, AMP peptide (8 μg/ml), KGF-1 (100 ng/ml), and EGF (100 ng/ml) were compared.

Where no end group is shown, it is not given here.

With “LDALVKEKKLQGKGPGGPPPK [AMP77-97 peptide]”, the “toxicity as measured by weight loss or mortality” value in the data set with hamster cheek pouch is recorded as “no signs of toxicity”. Also, the “toxicity (weight gain, mortality)” value (in data set [1]; in the data set with BDF-1 mice [3]; in the data set with Syrian golden hamsters) was “no evidence of any toxicity” each time. Besides, in the data set on BDF-1 mice [2], the toxicity entry was “no evidence of any toxicity”.
For “EGF: epidermal growth factor, known epithelial cell mitogen [reference compound]”, the “formation of new tight junctions / localization of ZO-1” value in data set [4] is “persistent separation of cells with TJ disruption and apparent loss of ZO-1”.
